Measurements reported in the CheMixHub viscosity set.

Assay: xn = mol fraction of the nth substance listed

O=C(O)CCl + O
293.35 K, 101 kPa
Settings	viscosity [mPa·s]
x1 = 0.01308	11070
x1 = 0.02204	12080
x1 = 0.02477	11950
x1 = 0.0251	11580
x1 = 0.03355	12540
x1 = 0.05294	15100

O=C(O)[C@@H]1CCCN1 + O
viscosity [mPa·s], 101 kPa
Settings	x1 = 0.00045	x1 = 0.0009	x1 = 0.00135	x1 = 0.001798	x1 = 0.002245	x1 = 0.002695	x1 = 0.003143	x1 = 0.003588
293.15 K	1.009	1.018	1.027	1.036	1.045	1.054	1.064	1.073
298.15 K	0.8966	0.9039	0.9114	0.9192	0.9269	0.9349	0.9428	0.9507
303.15 K	0.8027	0.809	0.8154	0.8221	0.8288	0.8354	0.8421	0.8487
308.15 K	0.7236	0.7289	0.7344	0.7401	0.7456	0.7513	0.757	0.7625
313.15 K	0.6566	0.6611	0.6658	0.6705	0.6753	0.68	0.6849	0.6894
318.15 K	0.6007	0.6045	0.6085	0.6125	0.6164	0.6204	0.6244	0.6282

O=CC(Cl)(Cl)Cl + O
323.15 K, 101 kPa
Settings	viscosity [mPa·s]
x1 = 0.05	1.031
x1 = 0.1	1.731
x1 = 0.15	2.671
x1 = 0.2	4.156
x1 = 0.25	5.987
x1 = 0.3	8.751
x1 = 0.35	11.36
x1 = 0.4	14.33
x1 = 0.425	15.57
x1 = 0.45	16.37
x1 = 0.465	17.06
x1 = 0.475	17.38
x1 = 0.49	17.26
x1 = 0.5	16.72
x1 = 0.55	14.07
x1 = 0.6	11.39
x1 = 0.7	5.695
x1 = 0.8	2.681
x1 = 0.9	1.447

OCC(F)(F)C(F)(F)F + O
viscosity [mPa·s], 100 kPa
Settings	x1 = 0.5504	x1 = 0.6564	x1 = 0.7892	x1 = 0.8991
298.15 K	2.607	2.626	2.774	3.069
323.15 K	1.263	1.278	1.318	1.401
